Consider twelve compounds from patent US20060070135A1, “Compositions and methods for inhibiting the enzymatic activity of PTP-1B” (priority 1998, published 2006).

Assay [1] deals with phosphorylation level of the insulin receptor in CHO-IR cells (endogenous PTP-1B). In words: Intact cell assay: insulin receptor phosphorylation level in CHO-IR cells treated with PTP-1B inhibitors and stimulated with insulin. The format is cell-based, Chinese hamster. The conditions noted are these: 5 nM insulin; for Intact cell assay: fold-increase over control / fold induction at 50 µM: at 50 μM. The method, then: The phosphorylation level of the insulin receptor (IR) was determined in CHO-IR cells (Chinese hamster ovarian cells expressing endogenous PTP-1B and overexpressing human insulin receptor; ATCC, Manassas, Va.) treated with PTP-1B inhibitors and stimulated with 5 nM insulin. CHO-IR cells were grown in F12 media, 10% fetal bovine serum (FBS), and 1% penstrep. All experiments were conducted within the first 12 passages after thawing cells.
On the first day of the experiment, CHO-IR cells were placed in 6-well plates (1/10 of 100 mm confluent plate). Once cells were confluent (˜24 hours later), the cells were starved overnight in 0% fetal bovine serum F12 medium. After the overnight incubation, the medium was changed to fresh 0% F12 30 minutes prior to the addition of inhibitor. A 1 mL aliquote of media containing inhibitor (10, 25 or 50 μM), with a final concentration of 0.1% DMSO, was added to each well. The inhibitors were added directly to the serum-free media, shortly before using them (i.e., the inhibitor was added to cells within 10 minutes of dilution). Cells were incubated with inhibitors for 2-4 hours. A 250 μL aliquote of insulin (human insulin, HUMULIN™ was subsequently added to each well at a final concentration of 5 nM. The cells were incubated for an additional 10 minutes and washed 2× with cold phosphate-buffered saline (PBS). Proteins were isolated with modified RIPA buffer (200 μL/well) containing protease inhibitor (COMPLETE™), NaF, and Na3VO4.
Protein quantification was conducted using Bradford reagent (BIO-RAD, Hercules, Calif.). Proteins were separated in an 8% SDS-PAGE gel with 25-40 μg protein per well. The proteins were subsequently transferred to PDVF membrane for western blot analysis. Membranes were blocked for 1 hour in either 1% bovine serum albumin for the 4G10 antibody or 5% milk for other antibodies. Membranes were incubated overnight at 4° C. with 4G10 or phospho-antibody, washed 4×5 minutes to remove the primary antibody, incubated 1 hour with secondary antibody, washed an additional 4×5 minutes, and visualized using an ECL detection kit.
Membranes were subsequently stripped, blocked for 1 hour and probed with anti-P-IR, anti-IR, anti-p-AKT, and anti-AKT primary antibodies. Primary antibodies were anti-IR pY1162pY1163 (human) polyclonal antibody and anti-1-IR polyclonal antibody. The blots were washed 4×5 minutes to remove primary antibody, incubated 1 hour in anti-rabbit HRP secondary antibody, washed an additional 4×5 minutes and visualized using ECL.
Bands visualized on the blots were quantified using NIH Image 1.62. Quantification was conducted for at least three experiments.

Assay [2] has as its target Insulin receptor (mouse, endogenous; β-subunit immunoprecipitated from tissue membrane fractions) (mouse) (UniProt P15208). In words: cell-based or functional assay.
Setting [3] is: Cricetulus griseus, read-out: Intact cell assay: fold-increase over control.

Chain of UniProt P15208 (P15208 753-1372 limits assumed): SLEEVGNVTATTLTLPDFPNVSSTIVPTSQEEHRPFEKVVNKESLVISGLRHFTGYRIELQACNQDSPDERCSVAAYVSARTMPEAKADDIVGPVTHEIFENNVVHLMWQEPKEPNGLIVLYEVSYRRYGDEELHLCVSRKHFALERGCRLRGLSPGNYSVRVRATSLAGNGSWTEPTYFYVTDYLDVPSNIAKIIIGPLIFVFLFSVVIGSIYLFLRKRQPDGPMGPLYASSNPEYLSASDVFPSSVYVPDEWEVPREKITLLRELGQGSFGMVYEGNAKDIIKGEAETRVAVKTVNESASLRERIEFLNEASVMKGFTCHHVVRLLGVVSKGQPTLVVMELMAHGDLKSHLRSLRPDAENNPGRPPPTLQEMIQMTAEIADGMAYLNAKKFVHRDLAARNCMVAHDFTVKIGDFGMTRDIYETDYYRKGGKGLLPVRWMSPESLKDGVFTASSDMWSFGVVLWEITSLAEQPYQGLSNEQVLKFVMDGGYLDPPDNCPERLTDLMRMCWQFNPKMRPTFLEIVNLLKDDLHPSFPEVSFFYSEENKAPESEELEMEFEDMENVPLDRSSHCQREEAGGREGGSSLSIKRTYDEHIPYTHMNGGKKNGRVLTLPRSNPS

On to `O=[N+]([O-])c1ccc(O)c(/C=N/N=c2/[nH]c3nonc3nc2Nc2ccc(I)cc2)c1` [compound 20, 2-{[6-(4-iodophenylamino)-4H-[1,2,5]oxadiazolo[3,4-b]pyrazin-5-ylidene]-hydrazonomethyl}-4-nitrophenol], for which the “Intact cell assay: fold-increase over control” value in assay [1] is given as “Inactive at 50 μM”. The same measure, in the same setting: the entry for `COc1ccc(-c2csc(N3N=C(c4ccc([N+](=O)[O-])cc4)C(=NNc4ccc(S(N)(=O)=O)cc4)C3=O)n2)cc1` [compound 15, 4-{N′-[1-[4-(4-methoxyphenyl)-thiazol-2-yl]-3-(4-nitrophenyl)-5-oxo-1,5-dihydropyrazol-4-ylidene]-hydrazino}-benzenesulfonamide] is “Inactive at 50 μM”. Take `COc1cc(/C=C2/SC(=S)N(c3cccc(Cl)c3)C2=O)cc([N+](=O)[O-])c1O` [compound 22, 3-(3-chlorophenyl)-5-(4-hydroxy-3-methoxy-5-nitrobenzylidene)-2-thioxothiazolidin-4-one]: the fold induction at 25 µM in assay [1] (Cricetulus griseus, at 25 μM, read-out: Intact cell assay: fold-increase over control) was 2.7. Besides, the fold induction at 50 µM in assay [1] (setting [3]) was found to be 4.1. In turn, “Protein tyrosine phosphatase-1B (mouse, endogenous) (from UniProt P35821 1-432)” registered an insulin receptor tyrosine phosphorylation in liver of wild-type mice, 5 minutes against 1 minute after insulin injection in assay [2] of 50%. `Nc1c(S(=O)(=O)O)cc(S(=O)(=O)O)c2cccc(O)c12` [compound 11, 4-amino-5-hydroxynaphthalene-1,3-disulfonic acid]: the “Intact cell assay: fold-increase over control” value in assay [1] is on record as “Inactive at 50 μM”. The same measure, in the same setting: the entry for `O=C(O)c1ccc(N2C(=O)/C(=C/c3ccc(-c4ccc([N+](=O)[O-])cc4)o3)C=C2c2ccccc2)cc1` [compound 17, 4-{3-[5-(4-nitrophenyl)-furan-2-ylmethylene]-2-oxo-5-phenyl-2,3-dihydropyrrol-1-yl}-benzoic acid] is “Inactive at 50 μM”; for `N#CC(C#N)=C1CSc2sc(=S)sc2SC1` [compound 13, 2-(2-thioxo-[1,3]dithiolo[4,5-b][1,4]dithiepin-6-ylidene)malononitrile] it is “Inactive at 50 μM”; for `Nc1nnnn1/N=C/c1cc(I)cc(I)c1O` [compound 19, 2-[(5-aminotetrazol-1-ylimino)-methyl]-4,6-diiodophenol] it is “Inactive at 50 μM”.

In assay [2], “Protein tyrosine phosphatase-1B (mouse, endogenous) (from UniProt P35821 1-432) (enzyme)” returned an insulin receptor phosphorylation level in muscle after insulin challenge, PTP-1B (+/-) against wild-type mice on high fat, high carbohydrate diet of 2 fold; an insulin receptor phosphorylation level in muscle after insulin challenge, PTP-1B (-/-) against wild-type mice on high fat, high carbohydrate diet of 4 fold; a phosphotyrosine level of the insulin receptor in muscle of insulin treated PTP-1B null mice compared to wild-type (immunoprecipitation, anti-phosphotyrosine immunoblot, densitometry) of 40%. For the compound `CCc1nnc(NS(=O)(=O)c2ccc(NC(=S)NC(=O)/C=C/c3ccc(C(C)C)cc3)cc2)s1` [compound 14, N-(5-ethyl-[1,3,4]thiadiazol-2-yl)-4-{3-[3-(4-isopropylphenyl)-acryloyl]-thioureido}-benzenesulfonamide], the “Intact cell assay: fold-increase over control” value in assay [1] was “Inactive at 50 μM”. On to `O=C1C=CC(=O)c2c(O)cccc21` [compound 21, 5-hydroxy-[1,4]-naphthoquinone], for which the fold induction at 50 µM in assay [1] (setting [3]) came to 0.87. As to `O=C(/C=C/c1ccco1)Nc1ccc(C(=O)O)cc1NC(=O)/C=C/c1ccco1` [compound 16, 3,4-bis-(3-furan-2-ylacryloylamino)-benzoic acid], the “Intact cell assay: fold-increase over control” value in assay [1] is “Inactive at 50 μM”.
